Results as given in patent publication US20070167499A1, “Biaryl linked hydroxamates: preparation and pharmaceutical applications” (A*BIO Pte Ltd., priority 2003, published 2007).
Like-named read-outs stand apart in the source and are kept apart here.

Experiments:
NCI H552 = test: Cell-based proliferation assay for determination of GI50 values, lung cancer cell line; settings: Homo sapiens; 96 h treatment, cyquant cell proliferation assay; read-out: Cellular activities GI50, NCI H552
Description: Cell-based Proliferation assay for determination of GI50 values
Three different cancer cell lines were obtained from ATCC: Human colon cancer cell line (Colo205), human breast cancer cell lines (MDA-MB435), and human lung cancer cell line (NCl-H522). Colo205 cells and NCl-H522 were cultivated in RPMI 1640 containing 2 mM
L-Glutamine, 5% FBS, 1.0 mM Na Pyruvate. MDA-MB435 cells were cultivated in DMEM containing 2 mM L-Glutamine, 5% FBS. Colo205 cells were seeded in 96-wells plate at 2000 and 5000 cells per well respectively. MDA-MB435 and NCl-H522 cells were seeded in 96-wells plate at 6000 cells per well. The plates were incubated at 37° C., 5% CO2, for 24 h. Cells were treated with compounds at various concentrations for 96 h. Cell growth was then monitored using cyquant cell proliferation assay (Invitrogen Pte Ltd). Dose response curves were plotted to determine GI50 values for the compounds using XL-fit (ID Business Solution, Emeryville, Calif.).

[1] = system: acetylated H3 in Colo205 cells; test: Histone H3 acetylation assay (western-blot); assay type: cell-based, human; set-up: key: “Active” means accumulation of acetylated histone was observed when compared with control (without compound); settings: for Histone 3 acetylation: Colo205 cells, 0.1, 1, 5 and 10 μM, after 24 h
Description: Histone H3, H4 and H2A acetylation assay
A hallmark of histone deacetylase (HDAC) inhibition is the increase in the acetylation level of histones. Histone acetylation, including H3, H4 and H2A can be detected by immuno-blotting (western-blot). Colo205 cells, approximately 1.5×10^6 cells/10 cm dish, were seeded in the previously described medium, cultivated for 24 h and subsequently treated with HDAC inhibitory agents at 0.1, 1, 5 and 10 μM final concentration. […] The protein concentration was quantified using BCA method (Sigma Pte Ltd). The protein lysate was separated using 4-12% bis-tris SDS-PAGE gel (Invitrogen Pte Ltd) and was transferred onto PVDF membrane (BioRad Pte Ltd). The membrane was probed separately using primary antibody specific for acetylated H3, acetylated H4 or acetylated H2A (Upstate Pte Ltd). The detection antibody, goat anti rabbit antibody conjugated with horse radish peroxidase (HRP) was used according to the manufacturing instruction (Pierce Pte Ltd). After removing the detection antibody from the membrane, an enhanced chemiluminescent substrate for detection of HRP (Pierce Pte Ltd) was added onto the membrane. After removing the substrate, the membrane was exposed to an X-ray film (Kodak) for 1 sec-20 mins. The X-ray film was developed using the X-ray film processor. The density of each band observed on the developed film could be analysed using UVP Bioimaging software (UVP, Inc, Upland, Calif.). The values were then normalized against the density of actin in the corresponding samples to obtain the expression of the protein.

HDAC8 enzyme (GST-HDAC8) = target: T1, HDAC8 enzyme (GST-HDAC8) (Homo sapiens, UniProt Q9BY41); test: In vitro HDAC assay for determination of IC50 values (BIOMOL fluorescent-based HDAC activity assay), HDAC8; assay type: biochemical
T1 construct: Amplification of human HDAC1 and HDAC8 coding region from this cDNA library; made in house; host or cells: SF9 insect cells (baculovirus, pFASTBAC vector)
T1 sequence (Q9BY41 1-377): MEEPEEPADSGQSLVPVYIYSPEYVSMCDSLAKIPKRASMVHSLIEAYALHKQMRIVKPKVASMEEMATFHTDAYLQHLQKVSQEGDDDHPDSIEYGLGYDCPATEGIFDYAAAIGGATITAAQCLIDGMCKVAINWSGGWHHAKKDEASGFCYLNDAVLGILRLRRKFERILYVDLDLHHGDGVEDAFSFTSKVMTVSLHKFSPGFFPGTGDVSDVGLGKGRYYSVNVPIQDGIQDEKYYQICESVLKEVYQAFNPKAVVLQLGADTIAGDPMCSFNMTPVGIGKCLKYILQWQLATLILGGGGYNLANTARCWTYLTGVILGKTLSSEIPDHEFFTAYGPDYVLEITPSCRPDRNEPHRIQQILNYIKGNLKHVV
Description: Recombinant GST-HDAC1 and GST-HDAC-8 Protein expression and purification
Human cDNA library was prepared using cultured SW620 cells. Amplification of human HDAC1 and HDAC8 coding region from this cDNA library was cloned separately into the baculovirus expression pDEST20 vector and pFASTBAC vector respectively (GATEWAY Cloning Technology, Invitrogen Pte Ltd). […] Recombinant baculovirus was prepared using the Bac-To-Bac method following the manufacturer's instruction (Invitrogen Pte Ltd).
Expression of GST-HDAC1 or HTGST-HDAC8 was done by infecting SF9 cells (Invitrogen Pte Ltd) with pDEST20-HDAC1 or pFASTBAC-GST-HDAC8 baculovirus at MOI=1 for 48 h. Soluble cell lysate was incubated with pre-equilibrated Glutathione Sepharose 4B beads (Amersham) at 4° C. for 2 h. The beads were washed with PBS buffer for 3 times. The GST-HDAC1 protein or GST-HDAC8 protein was eluted by elution buffer containing 50 mM Tris, pH8.0, 150 mM NaCl, 1% Triton X-100 and 10 mM or 20 mM reduced Glutathione. The purified GST-HDAC1 protein or purified GST-HDAC8 protein was dialyzed with HDAC storage buffer containing 10 mM Tris, pH7.5, 100 mM NaCl and 3 mM MgCl2. 20% Glycerol was added to purified GST-HDAC1 protein or purified GST-HDAC8 before storage at −80° C.
In vitro HDAC assay for determination of IC50 values
The assay has been carried out in 96 well format and the BIOMOL fluorescent-based HDAC activity assay has been applied. […] Flur de lys Developer was added and the reaction was incubated for 10 min. Briefly, deacetylation of the substrate sensitizes it to the developer, which then generates a fluorophore The fluorophore is excited with 360 nm light and the emitted light (460 nm) is detected on a fluorometric plate reader (Tecan Ultra Microplate detection system, Tecan Group Ltd.).
The analytical software, Prism 3.0® (GraphPad Software Inc) has been used to generate IC50 from a series of data.

[2] = 500 nM HDAC8 enzyme, 200 μM Flur de lys p53 peptide substrate, room temperature 2 h, read-out: HDAC8 Enzyme Activity, IC50

| Compound | GI50 (NCI H552) [nM] | Histone 3 acetylation (after 48 hrs) ([1]; Colo205 cells, after 48 hrs) | IC50 (HDAC8 enzyme (GST-HDAC8)) [nM] | Histone 3 acetylation [1] | IC50 (HDAC8 enzyme (GST-HDAC8); [2]) [nM] |
| --- | --- | --- | --- | --- | --- |
| O=C(Cc1ccc(-c2csc(NC(=O)Cc3ccccc3)n2)s1)NO [Example 1, N-Hydroxy-2-[5-(2-phenylacetylamino-thiazol-4-yl)-thiophen-2-yl]-acetamide] | 2360 | Active (after 48 hrs) | 41 | – | – |
| Nc1nc(-c2ccc(/C=C/C(=O)NO)cc2)cs1 [Example 23, 3-[4-(2-Amino-thiazol-4-yl)-phenyl]-N-hydroxy-acrylamide] | 13300 | – | – | Active | 100 |
| O=C(NO)c1ccc(-c2ccc(CNCCc3ccccc3)cc2)s1 [Example 26, 5-[4-(Phenethylamino-methyl)-phenyl]-thiophene-2-carboxylic acid hydroxyamide] | – | – | – | Active | 16 |
| O=C(NO)c1ccc(-c2ccc(CNCCc3ccccn3)cc2)s1 [Example 27] | – | – | – | Active | 120 |
